Source: patent US10265329B2, “Altering steroid metabolism for treatment of steroid-dependent disease” (THE CLEVELAND CLINIC FOUNDATION, priority 2015, dated 2019)

Molecular target: T1, CYP17A1 (Homo sapiens, UniProt P05093)
T1 construct: expressed in transfected cells
T1 sequence (P05093 1-508): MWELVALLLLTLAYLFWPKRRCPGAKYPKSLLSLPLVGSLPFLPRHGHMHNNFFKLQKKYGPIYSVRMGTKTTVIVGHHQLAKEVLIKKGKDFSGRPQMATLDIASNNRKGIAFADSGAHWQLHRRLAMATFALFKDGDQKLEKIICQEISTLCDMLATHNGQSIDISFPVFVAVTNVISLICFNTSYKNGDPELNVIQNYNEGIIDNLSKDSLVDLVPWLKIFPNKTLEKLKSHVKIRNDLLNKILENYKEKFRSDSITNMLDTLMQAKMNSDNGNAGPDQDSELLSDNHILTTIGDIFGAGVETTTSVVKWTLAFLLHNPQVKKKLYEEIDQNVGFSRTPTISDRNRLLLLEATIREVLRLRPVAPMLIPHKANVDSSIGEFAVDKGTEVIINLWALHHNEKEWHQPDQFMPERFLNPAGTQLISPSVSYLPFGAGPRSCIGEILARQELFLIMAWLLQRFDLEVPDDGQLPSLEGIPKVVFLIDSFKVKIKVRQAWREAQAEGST
Assay: Conversion of [3H]-pregnenolone to DHEA in 293 cells expressing CYP17A1
Assay type: cell-based
Details: for CYP17A1 inhibition activity relative to Abi and D4A: 293 cells overexpressing CYP17A1, [3H]-pregnenolone to DHEA
From the text: LNCaP and VCaP cells were purchased from the American Type Culture Collection (Manassas, Va.) and maintained in RPMI-1640 with 10% FBS. LAPC4 cells were kindly provided by Dr. Charles Sawyers (Memorial Sloan Kettering Cancer Center, New York, N.Y.) and grown in Iscove's Modified Dulbecco's Medium with 10% FBS. C4-2 cells were kindly provided by Dr. Leland Chung (Cedars-Sinai Medical Center, Los Angeles, Calif.) and maintained in RPMI-1640 with 10% FBS. All experiments done with LNCaP and VCaP were done in plates coated with poly-DL-ornithine (Sigma-Aldrich, St. Louis, Mo.). A 293 cell line stably expressing human CYP17A1 was generated by transfection with plasmid pcDNA3-CYP17 (a generous gift of Dr. Walter Miller, University of California, San Francisco) and selection with G418. Cell lines was authenticated by DDC Medical (Fairfield, Ohio) and determined to be […] mycoplasma free with primers.
Cell Line Metabolism: Cells were seeded and incubated in 12-well plates with 0.2 million cells/well for ˜24 h and then incubated with a mixture of radioactive ([^3H]-labeled) and non-radioactive androgens (final concentration, 100 nM; ˜1,000,000 cpm/well; PerkinElmer, Waltham, Mass.) at 37° C. Aliquots of medium were collected at the indicated times. Collected medium was treated with 1,000 units of β-glucuronidase (Helix pomatia; Sigma-Aldrich) at 65° C. for 2 h, extracted with 860 μL ethyl acetate:isooctane (1:1), and concentrated under nitrogen gas. Xenograft Metabolism: 10^7 LNCaP or VCaP cells were injected subcutaneously with Matrigel into surgically orchiectomized NSG mice that were implanted with 5 mg 90-day sustained-release DHEA pellets (Innovative Research of American, Sarasota, Fla.). Xenografts were harvested when they reached 1000 mm^3, minced, and cultured in DMEM with 10% FBS at 37° C. with mixture of radioactive ([^3H]-labeled) and non-radioactive androgens, or Abi, when they reached 1000 mm^3. Each xenograft was analyzed in triplicate in at least three independent experiments. Aliquots of medium were collected at the indicated times. […]
Dried samples were reconstituted in 50% methanol and injected into the HPLC. […] Alternatively, dried samples were applied to plastic-backed silica gel plates and separated by thin-layer chromatography (TLC) using a mobile phase of 3:1 chloroform:ethyl acetate, followed by exposure of the plates to a phosphorimager screen and quantitated with a Storm model 860 phosphorimager (Applied Biosystems, Foster City, Calif.). […]
Cell lines, drugs and constructs. […] Cell lines were authenticated by DDC Medical (Fairfield, Ohio) and determined to be mycoplasma free with primers. […]

SMILES | % conversion to DHEA (1 nM drug, 3 h incubation, vehicle 70.1%) [%] | CYP17A1 inhibition activity relative to Abi and D4A
C[C@]12CCC(=O)C=C1CC[C@@H]1[C@@H]2CC[C@]2(C)C(c3cccnc3)=CC[C@@H]12 [Compound D4A, 17-(3-Pyridyl)androsta-4,16-dien-3-one] | 4.2 | 
C[C@]12CCC(=O)C[C@@H]1CC[C@@H]1[C@@H]2CC[C@]2(C)C(c3cccnc3)=CC[C@@H]12 [Compound 5α-Abi, 17-(3-pyridyl)-5α-androsta-16-ene-3-one] |  | attenuated
C[C@]12CC[C@@H](O)C[C@@H]1CC[C@@H]1[C@@H]2CC[C@]2(C)C(c3cccnc3)=CC[C@@H]12 [Compound 3α-OH-5α-Abi, 17-(3-pyridyl)-5α-androsta-16-ene-3α-ol] |  | attenuated
